Measurements: patent publication US20220281848A1, “PYRAZOLE-SUBSTITUTED PYRROLIDINONES AS HERBICIDES” (FMC Corporation, priority 2019, published 2022)

System: plants
Assay: Test D pre-emergence, other plants of Tables D1 and D3
Type: in vivo
Conditions: preemergent, 20 DAA
Summary of the method: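 Damage was rated visually from 0 (none) to 100 (total), at 20 DAA for pre-emergence and 15 d for post-emergence. Plants grew from safener-treated seed in a glasshouse at 24/18° C. or 20/16° C. day/night, 65% humidity, watered twice daily.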

## CN1CC(c2cc(C(F)(F)F)n(C)n2)C(C(=O)Nc2ccccc2F)C1=O (racemic) [Compound 9]
Rate 15
  damage to plant (100=total damage to plant; 0=no damage to plant), ABUTH: 0
  damage to plant (100=total damage to plant; 0=no damage to plant), AMARE: 0
  damage to plant (100=total damage to plant; 0=no damage to plant), BIDPI: 0
  damage to plant (100=total damage to plant; 0=no damage to plant), BRAPL: 0
  damage to plant (100=total damage to plant; 0=no damage to plant), CYPES: 0
  damage to plant (100=total damage to plant; 0=no damage to plant), DIGSA: 0
  damage to plant (100=total damage to plant; 0=no damage to plant), ECHCG: 0
  damage to plant (100=total damage to plant; 0=no damage to plant), ELEIN: 0
  damage to plant (100=total damage to plant; 0=no damage to plant), EPHHL: 0
  damage to plant (100=total damage to plant; 0=no damage to plant), GLXMA: 0
  damage to plant (100=total damage to plant; 0=no damage to plant), IPOHE: 0
  damage to plant (100=total damage to plant; 0=no damage to plant), ORYSA: 0
  damage to plant (100=total damage to plant; 0=no damage to plant), PANMI: 0
  damage to plant (100=total damage to plant; 0=no damage to plant), SETFA: 0
  damage to plant (100=total damage to plant; 0=no damage to plant), SIDSP: 0
  damage to plant (100=total damage to plant; 0=no damage to plant), SORVU: 0
Rate 30
  damage to plant (100=total damage to plant; 0=no damage to plant), ABUTH: 0
  damage to plant (100=total damage to plant; 0=no damage to plant), AMARE: 0
  damage to plant (100=total damage to plant; 0=no damage to plant), BIDPI: 0
  damage to plant (100=total damage to plant; 0=no damage to plant), BRAPL: 10
  damage to plant (100=total damage to plant; 0=no damage to plant), CYPES: 0
  damage to plant (100=total damage to plant; 0=no damage to plant), DIGSA: 80
  damage to plant (100=total damage to plant; 0=no damage to plant), ECHCG: 20
  damage to plant (100=total damage to plant; 0=no damage to plant), ELEIN: 0
  damage to plant (100=total damage to plant; 0=no damage to plant), EPHHL: 0
  damage to plant (100=total damage to plant; 0=no damage to plant), GLXMA: 0
  damage to plant (100=total damage to plant; 0=no damage to plant), IPOHE: 0
  damage to plant (100=total damage to plant; 0=no damage to plant), ORYSA: 0
  damage to plant (100=total damage to plant; 0=no damage to plant), PANMI: 0
  damage to plant (100=total damage to plant; 0=no damage to plant), SETFA: 0
  damage to plant (100=total damage to plant; 0=no damage to plant), SIDSP: 0
  damage to plant (100=total damage to plant; 0=no damage to plant), SORVU: 0
Rate 60
  damage to plant (100=total damage to plant; 0=no damage to plant), ABUTH: 0
  damage to plant (100=total damage to plant; 0=no damage to plant), BIDPI: 0
  damage to plant (100=total damage to plant; 0=no damage to plant), BRAPL: 30
  damage to plant (100=total damage to plant; 0=no damage to plant), CYPES: 0
  damage to plant (100=total damage to plant; 0=no damage to plant), DIGSA: 80
  damage to plant (100=total damage to plant; 0=no damage to plant), ECHCG: 80
  damage to plant (100=total damage to plant; 0=no damage to plant), ELEIN: 0
  damage to plant (100=total damage to plant; 0=no damage to plant), EPHHL: 0
  damage to plant (100=total damage to plant; 0=no damage to plant), GLXMA: 0
  damage to plant (100=total damage to plant; 0=no damage to plant), IPOHE: 0
  damage to plant (100=total damage to plant; 0=no damage to plant), ORYSA: 0
  damage to plant (100=total damage to plant; 0=no damage to plant), PANMI: 0
  damage to plant (100=total damage to plant; 0=no damage to plant), SETFA: 0
  damage to plant (100=total damage to plant; 0=no damage to plant), SIDSP: 0
  damage to plant (100=total damage to plant; 0=no damage to plant), SORVU: 0
Rate 130
  damage to plant (100=total damage to plant; 0=no damage to plant), ABUTH: 0
  damage to plant (100=total damage to plant; 0=no damage to plant), BIDPI: 0
  damage to plant (100=total damage to plant; 0=no damage to plant), BRAPL: 90
  damage to plant (100=total damage to plant; 0=no damage to plant), CYPES: 0
  damage to plant (100=total damage to plant; 0=no damage to plant), DIGSA: 100
  damage to plant (100=total damage to plant; 0=no damage to plant), ECHCG: 90
  damage to plant (100=total damage to plant; 0=no damage to plant), ELEIN: 0
  damage to plant (100=total damage to plant; 0=no damage to plant), EPHHL: 0
  damage to plant (100=total damage to plant; 0=no damage to plant), GLXMA: 0
  damage to plant (100=total damage to plant; 0=no damage to plant), IPOHE: 0
  damage to plant (100=total damage to plant; 0=no damage to plant), ORYSA: 0
  damage to plant (100=total damage to plant; 0=no damage to plant), PANMI: 0
  damage to plant (100=total damage to plant; 0=no damage to plant), SETFA: 50
  damage to plant (100=total damage to plant; 0=no damage to plant), SIDSP: 0
  damage to plant (100=total damage to plant; 0=no damage to plant), SORVU: 0
Rate 250
  damage to plant (100=total damage to plant; 0=no damage to plant), ABUTH: 10
  damage to plant (100=total damage to plant; 0=no damage to plant), BIDPI: 0
  damage to plant (100=total damage to plant; 0=no damage to plant), BRAPL: 100
  damage to plant (100=total damage to plant; 0=no damage to plant), CYPES: 0
  damage to plant (100=total damage to plant; 0=no damage to plant), DIGSA: 90
  damage to plant (100=total damage to plant; 0=no damage to plant), ECHCG: 90
  damage to plant (100=total damage to plant; 0=no damage to plant), ELEIN: 0
  damage to plant (100=total damage to plant; 0=no damage to plant), GLXMA: 0
  damage to plant (100=total damage to plant; 0=no damage to plant), IPOHE: 0
  damage to plant (100=total damage to plant; 0=no damage to plant), ORYSA: 0
  damage to plant (100=total damage to plant; 0=no damage to plant), PANMI: 0
  damage to plant (100=total damage to plant; 0=no damage to plant), SETFA: 70
  damage to plant (100=total damage to plant; 0=no damage to plant), SIDSP: 0
  damage to plant (100=total damage to plant; 0=no damage to plant), SORVU: 0
Rate 500
  damage to plant (100=total damage to plant; 0=no damage to plant), ABUTH: 10
  damage to plant (100=total damage to plant; 0=no damage to plant), AMARE: 0
  damage to plant (100=total damage to plant; 0=no damage to plant), BIDPI: 0
  damage to plant (100=total damage to plant; 0=no damage to plant), BRAPL: 100
  damage to plant (100=total damage to plant; 0=no damage to plant), CYPES: 0
  damage to plant (100=total damage to plant; 0=no damage to plant), DIGSA: 100
  damage to plant (100=total damage to plant; 0=no damage to plant), ECHCG: 90
  damage to plant (100=total damage to plant; 0=no damage to plant), ELEIN: 0
  damage to plant (100=total damage to plant; 0=no damage to plant), EPHHL: 10
  damage to plant (100=total damage to plant; 0=no damage to plant), GLXMA: 0
  damage to plant (100=total damage to plant; 0=no damage to plant), IPOHE: 0
  damage to plant (100=total damage to plant; 0=no damage to plant), ORYSA: 0
  damage to plant (100=total damage to plant; 0=no damage to plant), PANMI: 0
  damage to plant (100=total damage to plant; 0=no damage to plant), SETFA: 90
  damage to plant (100=total damage to plant; 0=no damage to plant), SIDSP: 0
